ChEMBL document CHEMBL5584264 (Bioorg Med Chem Lett, 2024)
pKi: −log10 of the molar value. Values after ≈ are worked out from the molar mass of the structure shown.

Legend:
[1] = system: RAW264.7; assay: Antiinflammatory activity against LPS-induced mouse RAW264.7 cells assessed as cell viability at 1 uM by celltiter-blue cell viability assay; type: functional; settings: read-out: Activity
[2] = system: RAW264.7; assay: Antiinflammatory activity against LPS-induced mouse RAW264.7 cells assessed as cell viability at 10 uM by celltiter-blue cell viability assay; type: functional; settings: read-out: Activity
[3] = system: RAW264.7; assay: Antiinflammatory activity against LPS-induced mouse RAW264.7 cells assessed as reduction in TNF-alpha level at 30 uM preincubated with compound for 1 hr followed by LPS-induction and measured after 24 hrs by ELISA analysis relative to control; type: functional; set-up: scale not given: the % may be the effect or the level left; settings: time 25 hrs
[4] = system: RAW264.7; assay: Antiinflammatory activity against LPS-induced mouse RAW264.7 cells assessed as reduction in nitrite level preincubated with compound for 1 hr followed by LPS-induction and measured after 24 hrs by Fluorometric Assay; type: functional, cell-based; settings: dose 1-30 µM, time 25.0 hrs
[5] = Solubility of compound in PBS at pH 7.4 by LC/MS analysis; type: physicochemical
[6] = system: RAW264.7; assay: Antiinflammatory activity against LPS-induced mouse RAW264.7 cells assessed as cell viability at 30 uM by celltiter-blue cell viability assay; type: functional; settings: read-out: Activity
[7] = system: RAW264.7; assay: Antiinflammatory activity against LPS-induced mouse RAW264.7 cells assessed as reduction in nitrite level at 1 uM preincubated with compound for 1 hr followed by LPS-induction and measured after 24 hrs by Fluorometric Assay relative to control; type: functional; set-up: scale not given: the % may be the effect or the level left; settings: time 25 hrs
[8] = system: RAW264.7; assay: Antiinflammatory activity against LPS-induced mouse RAW264.7 cells assessed as reduction in nitrite level at 10 uM preincubated with compound for 1 hr followed by LPS-induction and measured after 24 hrs by Fluorometric Assay relative to control; type: functional; set-up: scale not given: the % may be the effect or the level left; settings: time 25 hrs
[9] = system: RAW264.7; assay: Antiinflammatory activity against LPS-induced mouse RAW264.7 cells assessed as reduction in nitrite level at 30 uM preincubated with compound for 1 hr followed by LPS-induction and measured after 24 hrs by Fluorometric Assay relative to control; type: functional; set-up: scale not given: the % may be the effect or the level left; settings: time 25 hrs
[10] = system: RAW264.7; assay: Antiinflammatory activity against LPS-induced mouse RAW264.7 cells assessed as reduction in IL-6 level at 1 uM preincubated with compound for 1 hr followed by LPS-induction and measured after 24 hrs by ELISA analysis relative to control; type: functional; set-up: scale not given: the % may be the effect or the level left; settings: time 25 hrs
[11] = system: RAW264.7; assay: Antiinflammatory activity against LPS-induced mouse RAW264.7 cells assessed as reduction in IL-6 level at 10 uM preincubated with compound for 1 hr followed by LPS-induction and measured after 24 hrs by ELISA analysis relative to control; type: functional; set-up: scale not given: the % may be the effect or the level left; settings: time 25 hrs
[12] = system: RAW264.7; assay: Antiinflammatory activity against LPS-induced mouse RAW264.7 cells assessed as reduction in IL-6 level at 30 uM preincubated with compound for 1 hr followed by LPS-induction and measured after 24 hrs by ELISA analysis relative to control; type: functional; set-up: scale not given: the % may be the effect or the level left; settings: time 25 hrs
[13] = molecular target: Sigma intracellular receptor 2 (Homo sapiens, UniProt Q5BJF2); assay: Displacement of [3H]DTG from sigma-2 receptor (unknown origin) assessed as inhibition constant
Sigma intracellular receptor 2, sequence (Q5BJF2 whole entry): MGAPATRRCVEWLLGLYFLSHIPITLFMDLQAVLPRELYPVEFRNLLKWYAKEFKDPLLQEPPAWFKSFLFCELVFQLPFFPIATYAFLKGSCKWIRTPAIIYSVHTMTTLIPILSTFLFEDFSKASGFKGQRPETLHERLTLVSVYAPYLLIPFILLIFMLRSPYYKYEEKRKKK

[14] = molecular target: 5-hydroxytryptamine receptor 2B (Homo sapiens, UniProt P41595); assay: Displacement of [3H]DTG from 5HT2B receptor (unknown origin) assessed as inhibition constant
5-hydroxytryptamine receptor 2B, sequence (P41595 whole entry): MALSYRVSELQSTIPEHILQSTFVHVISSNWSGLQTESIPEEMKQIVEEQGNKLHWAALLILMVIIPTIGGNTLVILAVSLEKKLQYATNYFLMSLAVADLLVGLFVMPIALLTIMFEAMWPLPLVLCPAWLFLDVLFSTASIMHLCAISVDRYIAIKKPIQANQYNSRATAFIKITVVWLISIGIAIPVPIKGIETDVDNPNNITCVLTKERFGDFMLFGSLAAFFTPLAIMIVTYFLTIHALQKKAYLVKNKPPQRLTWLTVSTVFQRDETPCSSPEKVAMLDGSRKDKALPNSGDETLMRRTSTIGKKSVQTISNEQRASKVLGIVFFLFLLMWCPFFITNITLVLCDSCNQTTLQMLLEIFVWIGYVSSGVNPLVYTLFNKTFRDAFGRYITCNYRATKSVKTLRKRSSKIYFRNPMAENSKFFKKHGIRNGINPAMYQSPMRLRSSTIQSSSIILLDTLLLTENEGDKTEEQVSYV

[15] = molecular target: Protein cereblon/DNA damage-binding protein 1 (Homo sapiens) (UniProt Q96SW2+Q16531); assay: Displacement of Cy5-tagged thalidomide-like probe from human CRBN/DDB1 complex by fluorescence polarization based CRBN binding assay; type: protein assay
Protein cereblon/DNA damage-binding protein 1 (Homo sapiens), sequence (Q16531 2-1140 partner limits assumed): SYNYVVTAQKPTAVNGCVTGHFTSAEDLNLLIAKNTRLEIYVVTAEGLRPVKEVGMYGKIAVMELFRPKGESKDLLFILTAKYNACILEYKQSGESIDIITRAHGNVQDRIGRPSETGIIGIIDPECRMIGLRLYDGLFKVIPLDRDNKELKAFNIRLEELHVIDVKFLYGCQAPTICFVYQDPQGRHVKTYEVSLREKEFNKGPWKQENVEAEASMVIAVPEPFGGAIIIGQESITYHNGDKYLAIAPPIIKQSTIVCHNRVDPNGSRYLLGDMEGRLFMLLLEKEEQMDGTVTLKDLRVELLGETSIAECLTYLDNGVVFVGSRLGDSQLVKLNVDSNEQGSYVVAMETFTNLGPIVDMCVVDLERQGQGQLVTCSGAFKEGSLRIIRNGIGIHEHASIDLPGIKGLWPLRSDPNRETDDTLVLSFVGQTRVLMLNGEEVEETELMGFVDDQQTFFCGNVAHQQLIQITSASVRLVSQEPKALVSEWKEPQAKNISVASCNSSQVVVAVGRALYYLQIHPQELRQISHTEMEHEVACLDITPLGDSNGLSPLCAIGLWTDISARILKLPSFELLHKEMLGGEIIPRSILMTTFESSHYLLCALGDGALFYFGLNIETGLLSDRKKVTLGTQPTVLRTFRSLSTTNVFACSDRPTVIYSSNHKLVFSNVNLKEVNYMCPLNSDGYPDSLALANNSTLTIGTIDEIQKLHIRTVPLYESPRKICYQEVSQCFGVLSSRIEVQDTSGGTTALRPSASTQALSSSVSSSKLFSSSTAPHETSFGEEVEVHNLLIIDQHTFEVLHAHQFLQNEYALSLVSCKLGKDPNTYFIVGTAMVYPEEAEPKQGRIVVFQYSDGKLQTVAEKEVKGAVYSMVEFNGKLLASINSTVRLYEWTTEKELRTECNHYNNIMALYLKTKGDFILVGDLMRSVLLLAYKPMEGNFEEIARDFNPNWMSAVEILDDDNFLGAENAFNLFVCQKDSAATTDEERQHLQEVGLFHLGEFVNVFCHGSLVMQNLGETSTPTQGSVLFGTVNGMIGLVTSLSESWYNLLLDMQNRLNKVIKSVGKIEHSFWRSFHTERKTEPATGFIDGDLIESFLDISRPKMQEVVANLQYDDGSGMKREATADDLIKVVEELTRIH
Protein cereblon/DNA damage-binding protein 1 (Homo sapiens), sequence (Q96SW2 whole entry): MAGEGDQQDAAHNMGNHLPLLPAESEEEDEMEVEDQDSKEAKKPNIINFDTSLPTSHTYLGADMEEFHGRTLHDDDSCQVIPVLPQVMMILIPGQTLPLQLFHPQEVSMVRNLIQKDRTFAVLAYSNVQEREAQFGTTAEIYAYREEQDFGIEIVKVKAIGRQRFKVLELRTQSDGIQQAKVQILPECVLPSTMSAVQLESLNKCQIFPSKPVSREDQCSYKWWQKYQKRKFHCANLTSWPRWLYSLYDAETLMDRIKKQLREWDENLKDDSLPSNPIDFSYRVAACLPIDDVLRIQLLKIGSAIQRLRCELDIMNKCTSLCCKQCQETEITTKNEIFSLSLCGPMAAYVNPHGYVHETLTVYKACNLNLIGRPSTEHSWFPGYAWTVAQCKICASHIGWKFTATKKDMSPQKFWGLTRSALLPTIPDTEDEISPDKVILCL

[16] = system: RAW264.7; assay: Antiinflammatory activity against LPS-induced mouse RAW264.7 cells assessed as reduction in TNF-alpha level at 10 uM preincubated with compound for 1 hr followed by LPS-induction and measured after 24 hrs by ELISA analysis relative to control; type: functional; set-up: scale not given: the % may be the effect or the level left; settings: time 25 hrs
[17] = system: RAW264.7; assay: Antiinflammatory activity against LPS-induced mouse RAW264.7 cells assessed as reduction in TNF-alpha level at 1 uM preincubated with compound for 1 hr followed by LPS-induction and measured after 24 hrs by ELISA analysis relative to control; type: functional; set-up: scale not given: the % may be the effect or the level left; settings: time 25 hrs
[18] = system: RAW264.7; assay: Antiinflammatory activity against LPS-induced mouse RAW264.7 cells assessed as reduction in IL-6 level preincubated with compound for 1 hr followed by LPS-induction and measured after 24 hrs by ELISA analysis; type: functional, cell-based; settings: dose 1-30 µM, time 25.0 hrs
[19] = molecular target: Sigma non-opioid intracellular receptor 1 (Homo sapiens, UniProt Q99720); assay: Displacement of [3H]DTG from sigma-1 receptor (unknown origin) assessed as inhibition constant
Sigma non-opioid intracellular receptor 1, sequence (Q99720 whole entry): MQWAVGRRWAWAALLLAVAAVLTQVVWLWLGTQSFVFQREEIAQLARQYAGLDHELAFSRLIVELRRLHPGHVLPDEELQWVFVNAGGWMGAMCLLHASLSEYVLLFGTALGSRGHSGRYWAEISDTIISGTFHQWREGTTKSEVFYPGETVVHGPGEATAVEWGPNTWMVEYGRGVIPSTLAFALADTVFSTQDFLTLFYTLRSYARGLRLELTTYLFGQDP

[20] = molecular target: 5-hydroxytryptamine receptor 2A (Homo sapiens, UniProt P28223); assay: Displacement of [3H]DTG from 5HT2A receptor (unknown origin) assessed as inhibition constant
5-hydroxytryptamine receptor 2A, sequence (P28223 whole entry): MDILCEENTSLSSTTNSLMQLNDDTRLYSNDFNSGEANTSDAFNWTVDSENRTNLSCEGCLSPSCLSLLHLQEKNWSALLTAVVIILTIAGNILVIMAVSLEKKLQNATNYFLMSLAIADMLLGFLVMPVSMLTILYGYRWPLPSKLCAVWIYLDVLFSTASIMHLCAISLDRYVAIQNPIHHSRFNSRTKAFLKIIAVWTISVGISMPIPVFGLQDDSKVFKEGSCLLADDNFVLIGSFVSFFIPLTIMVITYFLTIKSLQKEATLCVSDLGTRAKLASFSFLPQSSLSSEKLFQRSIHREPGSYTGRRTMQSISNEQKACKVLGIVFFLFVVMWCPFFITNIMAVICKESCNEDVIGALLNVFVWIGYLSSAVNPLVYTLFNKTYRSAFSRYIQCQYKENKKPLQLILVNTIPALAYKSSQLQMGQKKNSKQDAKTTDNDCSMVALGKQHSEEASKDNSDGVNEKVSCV

SMILES	viability at 1 µM [1]	viability at 10 µM [2]	Activity [3]	Activity [4]	solubility [5]	viability at 30 µM [6]	Activity [7]	Activity [8]	Activity [9]	Activity [10]	Activity [11]	Activity [12]	pKi [13]	pKi [14]	Activity [15]	Activity [16]	Activity [17]	Activity [18]	pKi [19]	pKi [20]
CN1CCC[C@H](N2C(=O)c3cccc(N)c3C2=O)C1	110%	111%	106%	Dose-Dependent Effect	–	–	–	–	–	–	–	–	–	–	–	–	–	–	–	–
Nc1cccc2c1C(=O)N(C1CCC(=O)NC1=O)C2=O (centres undefined) [POMALIDOMIDE]	–	–	–	–	85 µM (≈ 23.2 µg/mL)	–	–	–	–	–	–	–	–	–	–	–	–	–	–	–
Nc1cccc2c1C(=O)N(C1CCCNC1)C2=O (racemic)	100%	99%	104%	Dose-Dependent Effect	–	105%	97%	91%	83%	83%	88%	82%	5.66	6.25	Dose-Dependent Effect	–	–	–	–	–
Nc1cccc2c1C(=O)N(C1CCCN(C(=O)C(F)(F)F)C1)C2=O (centres undefined)	103%	103%	94%	–	–	99%	92%	90%	100%	–	–	–	–	–	–	–	–	–	–	–
Nc1cccc2c1C(=O)N(C1CCCN(C(=O)C3CC3)C1)C2=O (centres undefined)	99%	102%	100%	–	–	109%	–	94%	89%	–	–	–	–	–	–	100%	–	–	–	–
CCN1CCC[C@@H](N2C(=O)c3cccc(N)c3C2=O)C1	106%	104%	96%	Dose-Dependent Effect	–	102%	93%	93%	80%	–	–	–	–	–	–	97%	92%	–	–	–
Nc1cccc2c1C(=O)N([C@H]1CCCNC1)C2=O	104%	102%	94%	Dose-Dependent Effect	–	103%	110%	–	83%	–	102%	94%	–	–	–	94%	–	Dose-Dependent Effect	–	–
CC(C)N1CCC[C@@H](N2C(=O)c3cccc(N)c3C2=O)C1	96%	99%	114%	–	–	90%	126%	99%	153%	–	–	–	–	–	–	110%	106%	–	–	–
CCN1CCC[C@H](N2C(=O)c3cccc(N)c3C2=O)C1	100%	96%	109%	–	–	94%	115%	120%	114%	–	–	–	–	–	–	111%	114%	–	–	–
CN1CCC[C@@H](N2C(=O)c3cccc(N)c3C2=O)C1	100%	100%	–	–	–	–	–	101%	95%	–	–	–	–	–	–	100%	108%	–	–	–
CC(=O)N1CCCC(N2C(=O)c3cccc(N)c3C2=O)C1 (centres undefined)	102%	103%	86%	Dose-Dependent Effect	–	101%	95%	88%	81%	111%	106%	89%	5.28	–	Dose-Dependent Effect	86%	95%	–	5.62	5.28
CCN1CCCC(N2C(=O)c3cccc(N)c3C2=O)C1 (racemic)	101%	99%	102%	–	–	97%	101%	101%	90%	–	–	–	–	–	–	112%	115%	–	–	–
CC(C)N1CCC[C@H](N2C(=O)c3cccc(N)c3C2=O)C1	100%	100%	115%	–	–	102%	112%	100%	108%	–	–	–	–	–	–	115%	107%	–	–	–
CC(C)N1CCCC(N2C(=O)c3cccc(N)c3C2=O)C1 (racemic)	105%	100%	103%	–	–	95%	109%	100%	123%	–	–	–	–	–	–	109%	100%	–	–	–
Nc1cccc2c1C(=O)N([C@@H]1CCCNC1)C2=O	100%	103%	91%	Dose-Dependent Effect	–	114%	–	87%	68%	108%	72%	60%	–	–	–	95%	–	Dose-Dependent Effect	–	–
CN1CCCC(N2C(=O)c3cccc(N)c3C2=O)C1 (racemic)	–	95%	–	–	–	–	–	105%	–	–	–	–	–	–	Dose-Dependent Effect	116%	111%	–	–	–
